Assay results: PubChem BioAssay AID330 (DTP/NCI, 2004)
“And” between values parts separate entries of the source, which are not always exact repeats. Equal entries are not always repeated. Toxic doses and inconclusive results are not listed.

Test system: P388 leukemia ip, CD2F1 mice, survival T/C
Test: NCI In Vivo Anticancer Drug Screen. Data for tumor model P388 Leukemia (intraperitoneal) in CD2F1 (CDF1) mice
Conditions: endpoint: median survival time, higher = longer survival
Outline: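 Mice carrying the transplanted tumor received test compound or vehicle. Survival was recorded in each group, and the value is the treated-group measurement divided by that of the vehicle-treated control group.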

[1] = dose: 50.0 mg/kg/injection, schedule: Q01DX005 (ip), vehicle: saline with Tween-80
[2] = dose: 100.0 mg/kg/injection, schedule: Q01DX005 (ip), vehicle: saline with Tween-80
[3] = dose: 200.0 mg/kg/injection, schedule: Q01DX005 (ip), vehicle: saline with Tween-80
[4] = dose: 100.0 mg/kg/injection, schedule: Q01DX009 (ip), vehicle: saline with Tween-80
[5] = dose: 200.0 mg/kg/injection, schedule: Q01DX009 (ip), vehicle: saline with Tween-80
[6] = dose: 400.0 mg/kg/injection, schedule: Q01DX009 (ip), vehicle: saline with Tween-80
[7] = dose: 50.0 mg/kg/injection, schedule: Q01DX005 (ip), vehicle: Klucel (hydroxypropylcellulose) (HPC)
[8] = dose: 100.0 mg/kg/injection, schedule: Q01DX005 (ip), vehicle: Klucel (hydroxypropylcellulose) (HPC)
[9] = dose: 200.0 mg/kg/injection, schedule: Q01DX005 (ip), vehicle: Klucel (hydroxypropylcellulose) (HPC)
[10] = dose: 50.0 mg/kg/injection, schedule: Q01DX005 (ip), vehicle: saline

For CCN(CC)OC(=O)/C=C/c1ccccc1, the T/C (dose: 30.0 mg/kg/injection, schedule: Q01DX005 (ip), vehicle: saline with Tween-80) was 95 % of control, the T/C (dose: 60.0 mg/kg/injection, schedule: Q01DX005 (ip), vehicle: saline with Tween-80) was 98 % of control and 93 % of control and the T/C (dose: 120.0 mg/kg/injection, schedule: Q01DX005 (ip), vehicle: saline with Tween-80) was 86 % of control.

For CCOC(=O)c1sc2nc(CN3CCOCC3)[nH]c(=O)c2c1C, the T/C [1] was 94 % of control, the T/C [2] was 98 % of control and the T/C [3] was 98 % of control.

For O=C1CC2(C(=O)N1CN1CCCCC1)c1ccccc1-c1ccccc12, the T/C (dose: 50.0 mg/kg/injection, schedule: Q01DX009 (ip), vehicle: Klucel (hydroxypropylcellulose) (HPC)) was 104 % of control and 106 % of control, the T/C (dose: 100.0 mg/kg/injection, schedule: Q01DX009 (ip), vehicle: Klucel (hydroxypropylcellulose) (HPC)) was 102 % of control and 115 % of control and the T/C (dose: 200.0 mg/kg/injection, schedule: Q01DX009 (ip), vehicle: Klucel (hydroxypropylcellulose) (HPC)) was 156 % of control.

In the case of O=C1Nc2ncnn2C1=O, the T/C (dose: 50.0 mg/kg/injection, schedule: Q01DX009 (ip), vehicle: saline with Tween-80) was 108 % of control, the T/C [4] was 111 % of control and the T/C [5] was 99 % of control. For the same compound, the T/C [6] was 96 % of control.

In the case of CNC(C)C1(O)Cc2c(O)c3c(c(O)c2C(OC2CC(N)C(O)C(C)O2)C1)C(=O)c1c(OC)cccc1C3=O (stereo not drawn), the T/C (dose: 4.0 mg/kg/injection, schedule: Q01DX009 (ip), vehicle: water) was 150 % of control, the T/C (dose: 8.0 mg/kg/injection, schedule: Q01DX009 (ip), vehicle: water) was 157 % of control and 161 % of control and the T/C (dose: 16.0 mg/kg/injection, schedule: Q01DX009 (ip), vehicle: water) was 95 % of control.

In the case of COC(=O)N1C2CCCCC2=NN(c2ccccc2)N1C(=O)OC (stereo not drawn), the T/C (dose: 25.0 mg/kg/injection, schedule: Q01DX005 (ip), vehicle: Klucel (hydroxypropylcellulose) (HPC)) was 100 % of control, the T/C [7] was 98 % of control and the T/C [8] was 93 % of control. For the same compound, the T/C [9] was 91 % of control.

For CC(=O)Nc1cccc2[nH]c3ccccc3c(=O)c12, the T/C [1] was 95 % of control, the T/C [2] was 103 % of control and the T/C [3] was 93 % of control.

In the case of CCCCCCCCCCCCC1C(=O)NCCNCCCNCCNC1=O, the T/C (dose: 12.5 mg/kg/injection, schedule: Q01DX005 (ip), vehicle: saline) was 101 % of control, the T/C (dose: 25.0 mg/kg/injection, schedule: Q01DX005 (ip), vehicle: saline) was 97 % of control and the T/C [10] was 105 % of control.

In the case of COc1ccc(C2OC3=C(Nc4ccc([N+](=O)[O-])cc4N3)C2=O)cc1 (stereo not drawn), the T/C (dose: 0.93 mg/kg/injection, schedule: Q01DX005 (ip), vehicle: Klucel (hydroxypropylcellulose) (HPC)) was 89 % of control, the T/C (dose: 1.87 mg/kg/injection, schedule: Q01DX005 (ip), vehicle: Klucel (hydroxypropylcellulose) (HPC)) was 93 % of control and the T/C (dose: 3.75 mg/kg/injection, schedule: Q01DX005 (ip), vehicle: Klucel (hydroxypropylcellulose) (HPC)) was 92 % of control.

For O=C1OC(c2ccccc2)=N/C1=C\c1ccccc1O, the T/C [7] was 101 % of control, the T/C [8] was 101 % of control and the T/C [9] was 93 % of control.

With CCN(CC)CCCC(C)Nc1nc(-c2ccc(OC)cc2)nc2cc(Cl)ccc12 (stereo not drawn) the T/C [10] was 102 % of control and the T/C (dose: 100.0 mg/kg/injection, schedule: Q01DX005 (ip), vehicle: saline) was 93 % of control.

COc1ccc2c(C(=O)c3ccccc3)c3[n+](cc2c1OC)CCc1cc2c(cc1-3)OCO2 was tested, and the T/C (dose: 6.25 mg/kg/injection, schedule: Q01DX005 (ip), vehicle: Klucel (hydroxypropylcellulose) (HPC)) was 103 % of control and the T/C (dose: 12.5 mg/kg/injection, schedule: Q01DX005 (ip), vehicle: Klucel (hydroxypropylcellulose) (HPC)) was 103 % of control.

In the case of O=C(Nc1c(Cl)cccc1Cl)Oc1c(Br)cc(Br)cc1Br, the T/C (dose: 60.0 mg/kg/injection, schedule: Q01DX005 (ip), vehicle: Klucel (hydroxypropylcellulose) (HPC)) was 108 % of control, the T/C (dose: 120.0 mg/kg/injection, schedule: Q01DX005 (ip), vehicle: Klucel (hydroxypropylcellulose) (HPC)) was 101 % of control and the T/C (dose: 240.0 mg/kg/injection, schedule: Q01DX005 (ip), vehicle: Klucel (hydroxypropylcellulose) (HPC)) was 102 % of control.

For c1ccc2nc(-c3cc4ccccc4s3)ccc2c1, the T/C [4] was 100 % of control and 104 % of control, the T/C (dose: 100.0 mg/kg/injection, schedule: Q04DX003 (ip), vehicle: saline with Tween-80) was 90 % of control and the T/C [5] was 100 % of control and 90 % of control. For the same compound, the T/C (dose: 200.0 mg/kg/injection, schedule: Q04DX003 (ip), vehicle: saline with Tween-80) was 90 % of control, the T/C [6] was 109 % of control and 95 % of control and the T/C (dose: 400.0 mg/kg/injection, schedule: Q04DX003 (ip), vehicle: saline with Tween-80) was 90 % of control.

In the case of O=C(O)C1CCN1C1CCCCC1 (stereo not drawn), the T/C (dose: 100.0 mg/kg/injection, schedule: Q01DX009 (ip), vehicle: saline sonified) was 90 % of control, the T/C (dose: 200.0 mg/kg/injection, schedule: Q01DX009 (ip), vehicle: saline sonified) was 100 % of control and the T/C (dose: 400.0 mg/kg/injection, schedule: Q01DX009 (ip), vehicle: saline sonified) was 104 % of control.
